In assay [1] the target is T1, A II-induced contraction in the rabbit aorta (Oryctolagus cuniculus, UniProt P34976).
T1 construct: A II-induced contraction in the rabbit aorta; from tissue; host or cells: rabbit aorta
T1 sequence (P34976 1-359): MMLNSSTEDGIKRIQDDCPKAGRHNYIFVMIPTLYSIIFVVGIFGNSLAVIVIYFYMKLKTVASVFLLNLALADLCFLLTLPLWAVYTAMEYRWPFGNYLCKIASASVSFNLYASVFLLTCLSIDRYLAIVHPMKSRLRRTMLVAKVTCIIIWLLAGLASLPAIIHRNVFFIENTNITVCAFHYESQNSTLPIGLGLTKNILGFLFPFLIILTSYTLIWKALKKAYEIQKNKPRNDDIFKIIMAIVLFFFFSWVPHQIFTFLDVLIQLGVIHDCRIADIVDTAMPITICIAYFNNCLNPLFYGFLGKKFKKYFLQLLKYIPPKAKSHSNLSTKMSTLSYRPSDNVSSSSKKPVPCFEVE
Briefly: inhibition of the A II-induced contraction in the rabbit aorta (in vitro). The conditions noted are these: read-out: pA2 (converted). The class given is cell-based. The source says: (§1) For the characterization and the evaluation of the effectiveness of the compounds of the invention, in vitro tests (such as the inhibition of the A II-induced contraction in the rabbit aorta and the displacement of ^125 I-Sar^1 -Ile^8 -AT II or [H^3 ] AT II in the rat adrenal cortex) and an in vivo test (the inhibition of the A II-induced pressory response in the ganglio-blocked normotensive rat) were selected.

Assay [2] has as its system A II-induced pressory response. In words: inhibition of the A II-induced pressory response in the ganglio-blocked normotensive rat (in vivo). The settings on record: iv.
Text: as §1

Assay [3] addresses A II receptor. Briefly: receptor binding test: displacement of 125I-Sar1-Ile8-AT II or [H3] AT II in the rat adrenal cortex.
Text: The compounds described in the present invention act as antagonists at the A II receptor level.
as §1
A general note: In a radioligand displacement assay an active substance lowers the binding of a labelled ligand.

`CCCCc1nc(-c2ccccc2C(=O)O)cn1Cc1ccc(-c2ccccc2-c2nnn[nH]2)cc1` [Example 10, 2-Butyl-4-(2-carboxyphenyl)-1-[[2'-(tetrazol-5-yl) -biphenyl-4-yl]methyl]-1H-imidazole]: the Kb in assay [1] was 10 nM. Further, the 50% effect level in assay [2] (ED50) was put at a dose of 0.52 mg/kg.

The compound `CCCCc1nc(-c2cccc[n+]2[O-])cn1Cc1ccc(-c2ccccc2-c2nn[nH]n2)cc1` [Example 10e, 2-butyl-4-(pyridin-2-yl-N-oxide)-1-[[2'-(tetrazol-5-yl)biphenyl-4-yl]methyl]-1H-imidazole] showed a Ki in assay [3] of 6.5 nM. In assay [2], this compound gave an ED50 of 0.54 mg/kg.

For orientation: ED50 means the dose at which the effect has come halfway, by size or by number of responders. A low value points to greater potency. For orientation: Ki means a measure of affinity in units of concentration, obtained from inhibition or displacement. Lower therefore signals higher affinity.
